Measurements from ChEMBL document CHEMBL1148801, “Structural modification of the P2' position of 2,7-dialkyl-substituted 5(S)-amino-4(S)-hydroxy-8-phenyl-octanecarboxamides: the discovery of aliskiren, a potent nonpeptide human renin inhibitor active after once daily dosing in marmosets” (J Med Chem, 2007).

Legend:
Renin [1] = target: T1, Renin (Callithrix jacchus, UniProt Q9TSZ1); type: cell-free, Plasma
T1 sequence (Q9TSZ1 whole entry): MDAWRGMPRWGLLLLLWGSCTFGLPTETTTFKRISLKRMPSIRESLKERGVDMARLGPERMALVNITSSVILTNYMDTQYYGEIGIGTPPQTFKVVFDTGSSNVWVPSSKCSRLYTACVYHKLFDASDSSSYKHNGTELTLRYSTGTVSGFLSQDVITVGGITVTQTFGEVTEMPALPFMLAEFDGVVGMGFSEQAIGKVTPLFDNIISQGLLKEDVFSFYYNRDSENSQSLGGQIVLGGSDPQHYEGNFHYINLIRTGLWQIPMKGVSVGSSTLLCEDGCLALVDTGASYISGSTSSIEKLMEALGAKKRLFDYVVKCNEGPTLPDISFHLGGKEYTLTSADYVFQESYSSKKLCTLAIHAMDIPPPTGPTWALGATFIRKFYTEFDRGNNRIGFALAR

Renin [2] = target: T2, Renin (Homo sapiens, UniProt P00797)
T2 sequence (P00797 whole entry): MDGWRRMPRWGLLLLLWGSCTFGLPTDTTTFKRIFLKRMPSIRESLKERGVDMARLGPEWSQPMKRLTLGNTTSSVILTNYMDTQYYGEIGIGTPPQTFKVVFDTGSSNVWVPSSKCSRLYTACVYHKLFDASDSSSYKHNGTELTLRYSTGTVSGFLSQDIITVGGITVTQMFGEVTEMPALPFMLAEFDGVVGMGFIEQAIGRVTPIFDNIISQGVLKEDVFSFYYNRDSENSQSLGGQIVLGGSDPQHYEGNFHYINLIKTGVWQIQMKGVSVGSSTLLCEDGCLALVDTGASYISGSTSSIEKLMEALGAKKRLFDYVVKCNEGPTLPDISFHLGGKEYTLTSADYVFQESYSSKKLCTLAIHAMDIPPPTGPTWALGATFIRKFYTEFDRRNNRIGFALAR

Renin [3] = target: T2, Renin; remark: listed apart in the source
in vivo [4] = settings: marmoset, po, 3 mg/kg
physchem [5] = settings: octanol/water, pH 7.4
physchem [6] = experiment: physchem
physchem [7] = settings: octanol/water, pH 6.8
physchem [8] = experiment: physchem; remark: listed apart in the source
physchem [9] = settings: buffer, pH 7.4
physchem [10] = settings: water
Callithrix jacchus = species on record: Callithrix jacchus; type: functional, Plasma
Pepsin A = Pepsin A (Homo sapiens, UniProt P0DJD9)
Cathepsin D = Cathepsin D (Homo sapiens, UniProt P07339)
Cathepsin E = target: T3, Cathepsin E (Homo sapiens, UniProt P14091)
T3 sequence (P14091 whole entry): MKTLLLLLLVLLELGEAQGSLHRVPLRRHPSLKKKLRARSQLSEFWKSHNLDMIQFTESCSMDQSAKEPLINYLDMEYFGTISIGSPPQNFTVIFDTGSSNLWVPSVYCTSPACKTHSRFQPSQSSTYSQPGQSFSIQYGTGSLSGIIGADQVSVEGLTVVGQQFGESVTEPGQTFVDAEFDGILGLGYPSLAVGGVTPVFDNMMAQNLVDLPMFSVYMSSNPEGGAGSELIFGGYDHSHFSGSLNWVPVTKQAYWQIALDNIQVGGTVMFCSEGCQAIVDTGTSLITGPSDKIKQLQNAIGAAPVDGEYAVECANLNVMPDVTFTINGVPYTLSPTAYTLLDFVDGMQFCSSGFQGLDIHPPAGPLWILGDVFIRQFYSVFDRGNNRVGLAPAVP

Beta-secretase 1 = Beta-secretase 1 (Homo sapiens, UniProt P56817)
in vivo [11] = settings: dog, po
in vivo [12] = settings: rat, po
in vivo [13] = settings: marmoset

Chain of Pepsin A (P0DJD9 whole entry): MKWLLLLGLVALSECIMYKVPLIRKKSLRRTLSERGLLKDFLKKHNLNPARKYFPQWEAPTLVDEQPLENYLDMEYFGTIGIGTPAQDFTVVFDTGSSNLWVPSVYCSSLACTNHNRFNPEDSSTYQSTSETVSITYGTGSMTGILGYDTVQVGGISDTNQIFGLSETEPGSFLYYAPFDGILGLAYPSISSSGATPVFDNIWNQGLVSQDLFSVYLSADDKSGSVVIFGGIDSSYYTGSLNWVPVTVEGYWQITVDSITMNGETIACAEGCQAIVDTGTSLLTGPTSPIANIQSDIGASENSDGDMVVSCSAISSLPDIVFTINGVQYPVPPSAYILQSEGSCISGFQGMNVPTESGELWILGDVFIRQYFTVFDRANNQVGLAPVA
Chain of Beta-secretase 1 (P56817 whole entry): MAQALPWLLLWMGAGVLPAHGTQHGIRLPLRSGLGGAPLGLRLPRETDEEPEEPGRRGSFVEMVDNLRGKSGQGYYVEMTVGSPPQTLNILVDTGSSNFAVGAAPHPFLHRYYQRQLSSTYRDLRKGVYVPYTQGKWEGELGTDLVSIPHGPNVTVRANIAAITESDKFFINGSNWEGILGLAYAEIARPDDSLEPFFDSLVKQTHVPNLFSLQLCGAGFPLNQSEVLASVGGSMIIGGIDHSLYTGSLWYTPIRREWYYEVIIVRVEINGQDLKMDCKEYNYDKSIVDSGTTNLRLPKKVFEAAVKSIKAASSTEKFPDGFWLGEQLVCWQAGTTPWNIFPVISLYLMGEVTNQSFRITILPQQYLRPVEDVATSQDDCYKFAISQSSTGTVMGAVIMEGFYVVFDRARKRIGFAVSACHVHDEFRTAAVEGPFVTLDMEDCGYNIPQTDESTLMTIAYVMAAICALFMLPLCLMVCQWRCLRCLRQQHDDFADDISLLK
Chain of Cathepsin D (P07339 65-162 limits assumed): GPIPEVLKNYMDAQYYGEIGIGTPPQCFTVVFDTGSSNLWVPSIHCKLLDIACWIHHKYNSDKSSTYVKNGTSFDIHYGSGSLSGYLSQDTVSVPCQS
Chain of Cathepsin D (P07339 169-412 limits assumed): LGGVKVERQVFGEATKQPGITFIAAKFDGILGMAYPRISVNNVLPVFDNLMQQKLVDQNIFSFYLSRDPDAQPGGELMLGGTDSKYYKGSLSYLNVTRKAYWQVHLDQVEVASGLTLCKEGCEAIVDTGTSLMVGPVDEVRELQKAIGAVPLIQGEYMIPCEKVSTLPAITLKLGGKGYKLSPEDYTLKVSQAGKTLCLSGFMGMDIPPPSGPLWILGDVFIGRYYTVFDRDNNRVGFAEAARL

COCCCOc1cc(C[C@@H](C[C@H](N)[C@@H](O)C[C@H](C(=O)NCCCN2CCOCC2)C(C)C)C(C)C)ccc1OC
IC50 (Renin [1]): 3 nM
IC50 (Renin [2]): 3 nM
IC50 (Renin [3]): 3 nM

COCCCOc1cc(C[C@@H](C[C@H](N)[C@@H](O)C[C@H](C(=O)NCCc2nn[nH]n2)C(C)C)C(C)C)ccc1OC
IC50 (Renin [1]): 2 nM
IC50 (Renin [2]): 2 nM
IC50 (Renin [3]): 2 nM

COCCCOc1cc(C[C@@H](C[C@H](N)[C@@H](O)C[C@H](C(=O)NCCC(=O)N(C)C)C(C)C)C(C)C)ccc1OC.Cl
bioavailability (in vivo [4]): 14%

COCCCOc1cc(C[C@@H](C[C@H](N)[C@@H](O)C[C@H](C(=O)NC(C)CN2CCOCC2)C(C)C)C(C)C)ccc1OC (stereo partly specified)
IC50 (Renin [1]): 9 nM
IC50 (Renin [2]): 3 nM

CNC(=O)C(C)(C)CNC(=O)[C@@H](C[C@H](O)[C@@H](N)C[C@H](Cc1ccc(OC)c(OCCCOC)c1)C(C)C)C(C)C.Cl
IC50 (Renin [1]): 2 nM
IC50 (Renin [2]): 0.4 nM
IC50 (Renin [3]): 0.7 nM
bioavailability (in vivo [4]): 25%

COCCCOc1cc(C[C@@H](C[C@H](N)[C@@H](O)C[C@H](C(=O)N[C@@H](CO)C(N)=O)C(C)C)C(C)C)ccc1OC
IC50 (Renin [1]): 6 nM
IC50 (Renin [2]): 2 nM
IC50 (Renin [3]): 3 nM

COCCCOc1cc(C[C@@H](C[C@H](N)[C@@H](O)C[C@H](C(=O)NCC(C)(C)C(=O)O)C(C)C)C(C)C)ccc1OC
IC50 (Renin [1]): 13 nM
IC50 (Renin [2]): 3 nM
IC50 (Renin [3]): 13 nM

CC[C@H](NC(=O)[C@@H](C[C@H](O)[C@@H](N)C[C@H](Cc1ccc(OC)c(OCCCOC)c1)C(C)C)C(C)C)C(N)=O
IC50 (Renin [1]): 1 nM
IC50 (Renin [2]): 0.8 nM

COCCCCc1cc(C[C@@H](C[C@H](N)[C@@H](O)C[C@H](C(=O)NCCN2CCOCC2)C(C)C)C(C)C)ccc1OC.Cl
IC50 (Renin [1]): 1 nM
IC50 (Renin [2]): 2 nM
IC50 (Renin [3]): 0.9 nM
bioavailability (in vivo [4]): 30%
logD (physchem [5]): 2.85
pKa (physchem [6]): 6.01

COCCCOc1cc(C[C@@H](C[C@H](N)[C@@H](O)C[C@H](C(=O)NCC(C)(C)C(N)=O)C(C)C)C(C)C)ccc1OC.COCCCOc1cc(C[C@@H](C[C@H](N)[C@@H](O)C[C@H](C(=O)NCC(C)(C)C(N)=O)C(C)C)C(C)C)ccc1OC.O=C(O)/C=C/C(=O)O [ALISKIREN FUMARATE]
logD (physchem [5]): 2.5
logD (physchem [7]): 0.1
solubility (physchem [8]): 0.44 mg/mL
pKa (physchem [6]): 9.2
solubility (physchem [9]): > 100 mg/mL

COCCCOc1cc(C[C@@H](C[C@H](N)[C@@H](O)C[C@H](C(=O)NC[C@H]2CCC(=O)N2)C(C)C)C(C)C)ccc1OC.Cl
IC50 (Renin [1]): 2 nM
IC50 (Renin [2]): 2 nM
IC50 (Renin [3]): 1 nM
logD (physchem [5]): 2.06
solubility (physchem [10]): > 100 mg/mL
pKa (physchem [6]): 9.09

COCCCCc1cc(C[C@@H](C[C@H](N)[C@@H](O)C[C@H](C(=O)NCC(C)(C)C(N)=O)C(C)C)C(C)C)ccc1OC.Cl
IC50 (Renin [1]): 4 nM
IC50 (Renin [2]): 1 nM
IC50 (Renin [3]): 3 nM
bioavailability (in vivo [4]): 8%
logD (physchem [5]): 3.31
pKa (physchem [6]): 9.44

COCCCOc1cc(C[C@@H](C[C@H](N)[C@@H](O)C[C@H](C(=O)NCCN2CCOCC2)C(C)C)C(C)C)ccc1OC
IC50 (Renin [1]): 3 nM
IC50 (Renin [2]): 0.4 nM
IC50 (Renin [3]): 1 nM

CCCCNC(=O)[C@@H](C[C@H](O)[C@@H](N)C[C@H](Cc1ccc(OC)c(OCCCOC)c1)C(C)C)C(C)C.Cl
Inhibition (Callithrix jacchus): 79%

COCCCOc1cc(C[C@@H](C[C@H](N)[C@@H](O)C[C@H](C(=O)NC(C)(C)CN2CCOCC2)C(C)C)C(C)C)ccc1OC
IC50 (Renin [2]): 16 nM
IC50 (Renin [3]): 27 nM

COCCCOc1cc(C[C@@H](C[C@H](N)[C@@H](O)C[C@H](C(=O)NC(C)(C)C(N)=O)C(C)C)C(C)C)ccc1OC
IC50 (Renin [1]): 200 nM
IC50 (Renin [2]): 13 nM
IC50 (Renin [3]): 100 nM

COCCCOc1cc(C[C@@H](C[C@H](N)[C@@H](O)C[C@H](C(=O)N[C@H](C)CC(N)=O)C(C)C)C(C)C)ccc1OC
IC50 (Renin [1]): 28 nM
IC50 (Renin [2]): 6 nM
IC50 (Renin [3]): 57 nM

COCCCOc1cc(C[C@@H](C[C@H](N)[C@@H](O)C[C@H](C(=O)NCC(C)(C)C(N)=O)C(C)C)C(C)C)ccc1OC.Cl
IC50 (Pepsin A): > 10000 nM
IC50 (Cathepsin D): > 10000 nM
IC50 (Cathepsin E): > 10000 nM
IC50 (Beta-secretase 1): > 10000 nM
bioavailability (in vivo [4]): 16%
bioavailability (in vivo [11]): 32%
bioavailability (in vivo [12]): 2.4%
half-life (in vivo [13]): 8.7 h

COCCCOc1cc(C[C@@H](C[C@H](N)[C@@H](O)C[C@H](C(=O)NC[C@@H]2CCC(=O)N2)C(C)C)C(C)C)ccc1OC.Cl
IC50 (Renin [1]): 3 nM
IC50 (Renin [2]): 0.6 nM
IC50 (Renin [3]): 0.9 nM
bioavailability (in vivo [4]): 22%

COCCCOc1cc(C[C@@H](C[C@H](N)[C@@H](O)C[C@H](C(=O)N[C@@H](C)CC(N)=O)C(C)C)C(C)C)ccc1OC
IC50 (Renin [1]): 3 nM
IC50 (Renin [2]): 1 nM
IC50 (Renin [3]): 2 nM

COCCCOc1cc(C[C@@H](C[C@H](N)[C@@H](O)C[C@H](C(=O)NCCC(=O)N(C)C)C(C)C)C(C)C)ccc1OC
logD (physchem [5]): 2.48
pKa (physchem [6]): 9.4

COCCCOc1cc(C[C@@H](C[C@H](N)[C@@H](O)C[C@H](C(=O)NCC(C)(C)N2CCOCC2)C(C)C)C(C)C)ccc1OC
IC50 (Renin [1]): 18 nM
IC50 (Renin [2]): 0.6 nM
IC50 (Renin [3]): 2 nM
